Reference: patent publication US9657057B2, “Dipeptide and tripeptide epoxy ketone protease inhibitors” (Onyx Therapeutics, Inc., priority 2013, dated 2017)
In brackets after ≈: the same amount, converted by molar mass. Several values for one entry are separate records, joined by “and”; a condition that tells them apart may be missing. Equal values may be shown once.

How the values were obtained:
[1] = target: i20S (20S immunoproteasome) (Homo sapiens, UniProt P20618+P28062); assay: 20S proteasome assay, chymotrypsin-like activity (LLVY), i20S; assay type: biochemical; details: LLVY i20S Hu 1 h CONT: IC50 (nM), succinyl-Leu-Leu-Val-Tyr-AMC
From the text: (§1) Assay buffer consisted of TE buffer [20 mmol/L Tris (pH 8.0), 0.5 mmol/L EDTA] with (20S) or without (cell lysate) 0.03% SDS. Reactions were initiated by enzyme or lysate addition and monitored for AMC product formation at 27jC with a plate-based spectofluorometer (Tecan).

Solubility pH 7 = assay type: physicochemical; details: pH 7, aqueous buffer
[2] = target: c20S (constitutive 20S proteasome) (Homo sapiens, UniProt P20618+P28074); assay: 20S proteasome assay, chymotrypsin-like activity (LLVY), c20S; assay type: biochemical; details: LLVY c20S Hu 1 h CONT: IC50 (nM), succinyl-Leu-Leu-Val-Tyr-AMC
From the text: as §1

β5 = target: T1, β5 (Homo sapiens, UniProt P20618+P28074); assay: ProCISE proteasome subunit assay, β5; assay type: biochemical
T1 construct: endogenous in cells; host or cells: MOLT-4
Protocol: (§2) This assay was used to assess the inhibitory activity against each of LMP2, LMP7, MECL1, β1, β2, and β5. Briefly, test compounds were serially diluted in DMSO at 100× concentration, then diluted to 10× in aqueous hypotonic lysis buffer. Lysate from the human acute lymphoblastic leukemia cell line, MOLT-4, was treated for 1 hour at 25° C. with compound at a final 1× concentration. […] Following this, lysate was denatured in guanidine hydrochloride, and subunits bound to probe were isolated with streptavidin-conjugated sepharose beads. Individual subunits were probed with subunit-specific primary antibodies, followed by HRP-conjugated secondary antibodies. A chemiluminescent substrate was used to generate signal associated with HRP binding, which was detected on a plate reader. Luminescent signal was normalized to protein content, then, percent activity calculated relative to DMSO-treated controls to generate IC50 curves.

LMP7 = target: T2, LMP7 (Homo sapiens, UniProt P20618+P28062); assay: ProCISE proteasome subunit assay, LMP7; assay type: biochemical
T2 construct: endogenous in cells; host or cells: MOLT-4
Protocol: as §2

| Structure (SMILES) | IC50 [1] [nM] | solubility (Solubility pH 7) [µg/mL] | IC50 [2] | IC50 (β5; MOLT4 lysate Hu 1 h) [nM] | IC50 (LMP7; MOLT4 lysate Hu 1 h) [nM] | IC50 (β5; ProCISE beta5 MOLT4 lysate Hu 1 h CONT: IC50 (nM)) [nM] | IC50 (LMP7; ProCISE LMP7 MOLT4 lysate Hu 1 h CONT: IC50 (nM)) [nM] |
| --- | --- | --- | --- | --- | --- | --- | --- |
| COc1ccc(C[C@H](NC(=O)[C@H](C)NC(=O)CO)C(=O)N[C@@H](Cc2ccccc2)C(=O)[C@@]2(C)CO2)cc1 [Compound C-2008] | 558 | 2330 (≈ 4560 µM) | 1590 nM |  |  |  |  |
| COC(=O)N[C@H](C)C(=O)N[C@@H](Cc1ccc(OC)cc1)C(=O)N[C@@H](Cc1ccccc1)C(=O)[C@@]1(C)CO1 [Compound C-2010, Methyl ((R)-1-(((S)-3-(4-methoxyphenyl)-1-(((S)-1-((R)-2-methyloxiran-2-yl)-1-oxo-3-phenylpropan-2-yl)amino)-1-oxopropan-2-yl)amino)-1-oxopropan-2-yl)carbamate] | 414 | 300 (≈ 587 µM) | 1050 nM |  |  |  |  |
| COc1ccc(C[C@H](NC(=O)[C@H](C)NC(=O)CCO)C(=O)N[C@@H](Cc2ccccc2)C(=O)[C@@]2(C)CO2)cc1 [Compound C-2012, (S)-2-((S)-2-(3-hydroxypropanamido)propanamido)-3-(4-methoxyphenyl)-N—((S)-1-((R)-2-methyloxiran-2-yl)-1-oxo-3-phenylpropan-2-yl)propanamide] | 86.9 | 3830 (≈ 7280 µM) | 262 nM |  |  |  |  |
| COc1ccc(C[C@H](NC(=O)[C@@H](CC(=O)OC(C)(C)C)NC(=O)OCc2ccccc2)C(=O)N[C@@H](Cc2ccccc2)C(=O)[C@@]2(C)CO2)cc1 [Compound C-2016, (R)-tert-Butyl 3-(((benzyloxy)carbonyl)amino)-4-(((S)-3-(4-methoxyphenyl)-1-(((S)-1-((R)-2-methyloxiran-2-yl)-1-oxo-3-phenylpropan-2-yl)amino)-1-oxopropan-2-yl)amino)-4-oxobutanoate] |  |  |  | 279 | 69.7 |  |  |
| COc1ccc(C[C@H](NC(=O)[C@@H](CC(=O)O)NC(=O)OCc2ccccc2)C(=O)N[C@@H](Cc2ccccc2)C(=O)[C@@]2(C)CO2)cc1 [Compound C-2017, (R)-3-(((Benzyloxy)carbonyl)amino)-4-(((S)-3-(4-methoxyphenyl)-1-(((S)-1-((R)-2-methyloxiran-2-yl)-1-oxo-3-phenylpropan-2-yl)amino)-1-oxopropan-2-yl)amino)-4-oxobutanoic acid] |  |  |  | 129 | 37.2 |  |  |
| COc1ccc(C[C@H](NC(=O)[C@@H](C)NC(=O)C2=Cc3ccccc3C2)C(=O)N[C@@H](CC2CCCC2)C(=O)[C@@]2(C)CO2)cc1 [Compound C-2036, N—((R)-1-(((S)-1-(((S)-3-cyclopentyl-1-((R)-2-methyloxiran-2-yl)-1-oxopropan-2-yl)amino)-3-(4-methoxyphenyl)-1-oxopropan-2-yl)amino)-1-oxopropan-2-yl)-1H-indene-2-carboxamide] |  | 2.1 (≈ 3.57 µM) | 5140 nM and 2710 nM | 4860 | 130 |  |  |
| CC1=C(C(=O)N[C@H](C)C(=O)N[C@@H](Cc2c[nH]c3ccccc23)C(=O)N[C@@H](CC2CCCC2)C(=O)[C@@]2(C)CO2)Cc2ccccc21 [Compound C-2047, N—((R)-1-(((S)-1-(((S)-3-cyclopentyl-1-((R)-2-methyloxiran-2-yl)-1-oxopropan-2-yl)amino)-3-(1H-indol-3-yl)-1-oxopropan-2-yl)amino)-1-oxopropan-2-yl)-3-methyl-1H-indene-2-carboxamide] |  | 0.3 (≈ 0.491 µM) |  | 1100 | 68.7 |  |  |
| COc1ccc(C[C@H](NC(=O)[C@H](C)NC(=O)C2=C(C)c3ccccc3C2)C(=O)N[C@@H](Cc2ccccc2)C(=O)[C@@]2(C)CO2)cc1 [Compound C-2049, N—((S)-1-(((S)-3-(4-methoxyphenyl)-1-(((S)-1-((R)-2-methyloxiran-2-yl)-1-oxo-3-phenylpropan-2-yl)amino)-1-oxopropan-2-yl)amino)-1-oxopropan-2-yl)-3-methyl-1H-indene-2-carboxamide] |  | 0.8 (≈ 1.31 µM) |  |  |  | 57.6 | 45.8 |
| COc1ccc(C[C@H](NC(=O)[C@@H](C)NC(=O)CC(C)(C)O)C(=O)N[C@@H](Cc2ccc(C)cc2)C(=O)[C@H]2CO2)cc1 [Compound C-2053, 3-hydroxy-N—((R)-1-(((S)-3-(4-methoxyphenyl)-1-(((S)-1-((R)-oxiran-2-yl)-1-oxo-3-(p-tolyl)propan-2-yl)amino)-1-oxopropan-2-yl)amino)-1-oxopropan-2-yl)-3-methylbutanamide] |  | 1260 (≈ 2270 µM) |  | 5.27 | 1.82 |  |  |
| C[C@@H](NC(=O)CC(C)(C)O)C(=O)N[C@@H](Cc1ccc(S(C)(=O)=O)cc1)C(=O)N[C@@H](CC1CCCC1)C(=O)[C@H]1CO1 [Compound C-2055, N—((R)-1-(((S)-1-(((S)-3-cyclopentyl-1-((R)-oxiran-2-yl)-1-oxopropan-2-yl)amino)-3-(4-(methylsulfonyl)phenyl)-1-oxopropan-2-yl)amino)-1-oxopropan-2-yl)-3-hydroxy-3-methylbutanamide] |  | 1970 (≈ 3400 µM) |  | 354 | 17.6 |  |  |
| COc1ccc(C[C@H](NC(=O)[C@@H](C)NC(=O)C2=CCCC2)C(=O)N[C@@H](Cc2ccccc2)C(=O)[C@@]2(C)CO2)cc1 [Compound C-2058, N—((R)-1-(((S)-3-(4-methoxyphenyl)-1-(((S)-1-((R)-2-methyloxiran-2-yl)-1-oxo-3-phenylpropan-2-yl)amino)-1-oxopropan-2-yl)amino)-1-oxopropan-2-yl)cyclopent-1-enecarboxamide] |  | 45.4 (≈ 82.9 µM) |  | 4290 | 539 |  |  |
| COc1ccc(C[C@H](NC(=O)[C@@H](C)NC(=O)[C@@H]2CCc3[nH]ncc3C2)C(=O)N[C@@H](CC2CCCC2)C(=O)[C@@]2(C)CO2)cc1 [Compound C-2064, (R)—N—((R)-1-(((S)-1-(((S)-3-cyclopentyl-1-((R)-2-methyloxiran-2-yl)-1-oxopropan-2-yl)amino)-3-(4-methoxyphenyl)-1-oxopropan-2-yl)amino)-1-oxopropan-2-yl)-4,5,6,7-tetrahydro-1H-indazole-5-carboxamide] |  | 144 (≈ 242 µM) |  | 6110 | 139 |  |  |
| COc1ccc(C[C@H](NC(=O)[C@@H](C)NC(=O)[C@H]2CCc3[nH]ncc3C2)C(=O)N[C@@H](CC2CCCC2)C(=O)[C@@]2(C)CO2)cc1 [Compound C-2065, (S)—N—((R)-1-(((S)-1-(((S)-3-cyclopentyl-1-((R)-2-methyloxiran-2-yl)-1-oxopropan-2-yl)amino)-3-(4-methoxyphenyl)-1-oxopropan-2-yl)amino)-1-oxopropan-2-yl)-4,5,6,7-tetrahydro-1H-indazole-5-carboxamide] |  | 121 (≈ 204 µM) |  | 6630 | 157 |  |  |
| COc1ccc(C[C@H](NC(=O)[C@H](C)NC(=O)Cc2cnc(N3CCCC3)s2)C(=O)N[C@@H](CC2=CCCC2)C(=O)[C@@]2(C)CO2)cc1 [Compound C-2069, (S)—N—((S)-3-(cyclopent-1-en-1-yl)-1-((R)-2-methyloxiran-2-yl)-1-oxopropan-2-yl)-3-(4-methoxyphenyl)-2-((S)-2-(2-(2-(pyrrolidin-1-yl)thiazol-5-yl)acetamido)propanamido)propanamide] |  | 26.6 (≈ 41.7 µM) |  |  |  |  |  |
| COc1ccc(C[C@H](NC(=O)[C@H](C)NC(=O)Cc2cnc(N)o2)C(=O)N[C@@H](CC2=CCCC2)C(=O)[C@@]2(C)CO2)cc1 [Compound C-2070, (S)-2-((S)-2-(2-(2-aminooxazol-5-yl)acetamido)propanamido)-N—((S)-3-(cyclopent-1-en-1-yl)-1-((R)-2-methyloxiran-2-yl)-1-oxopropan-2-yl)-3-(4-methoxyphenyl)propanamide] |  | 1020 (≈ 1800 µM) |  |  |  |  |  |
| COc1ccc(C[C@H](NC(=O)[C@@H]2CC(=O)N2)C(=O)N[C@@H](Cc2ccccc2)C(=O)[C@@]2(C)CO2)cc1 [Compound C-3002, (S)—N—((S)-3-(4-methoxyphenyl)-1-(((S)-1-((R)-2-methyloxiran-2-yl)-1-oxo-3-phenylpropan-2-yl)amino)-1-oxopropan-2-yl)-4-oxoazetidine-2-carboxamide] |  | 1460 (≈ 3050 µM) |  | 1930 | 934 |  |  |
| COc1ccc(C[C@H](NC(=O)[C@H]2CC(=O)N2)C(=O)N[C@@H](Cc2ccccc2)C(=O)[C@@]2(C)CO2)cc1 [Compound C-3003, (R)—N—((S)-3-(4-methoxyphenyl)-1-(((S)-1-((R)-2-methyloxiran-2-yl)-1-oxo-3-phenylpropan-2-yl)amino)-1-oxopropan-2-yl)-4-oxoazetidine-2-carboxamide] |  | 1200 (≈ 2500 µM) |  | 1220 | 513 |  |  |
| COc1ccc(C[C@H](NC(=O)[C@@]2(CO)CCCN2)C(=O)N[C@@H](Cc2ccccc2)C(=O)[C@@]2(C)CO2)cc1 [Compound C-3005] |  | 1920 (≈ 3760 µM) |  |  |  |  |  |
| COc1ccc(C[C@H](NC(=O)C(C)(C)N)C(=O)N[C@@H](Cc2ccccc2)C(=O)[C@@]2(C)CO2)cc1 [Compound C-3006, 2-Amino-N—((S)-3-(4-methoxyphenyl)-1-(((S)-1-((R)-2-methyloxiran-2-yl)-1-oxo-3-phenylpropan-2-yl)amino)-1-oxopropan-2-yl)-2-methylpropanamide] |  | 385 (≈ 823 µM) |  |  |  |  |  |
